Source: ChEMBL document CHEMBL5579829, “Discovery of a potent CDKs/FLT3 PROTAC with enhanced differentiation and proliferation inhibition for AML” (Eur J Med Chem, 2024)
Activity calls are given as the source filed them. The calls are words filed in the database; no cut-off is given here.

What was measured:
[1] = test system: HL-60; assay: Induction of pro-differentiation of human HL-60 cells assessed as CD11b expression at 2 nM measured after 5 days by immunostaining-based flow cytometry (reference value: 10.08 to 10.33%); type: functional; conditions: time 5 day
[2] = molecular target: T1, Protein cereblon/Cyclin-dependent kinase 1 (Homo sapiens) (UniProt P06493+Q96SW2); assay: Protac activity at CRBN/CDK1 in human HL-60 cells assessed as induction of CDK1 degradation at 4 to 64 nM measured after 3 days by Western blot analysis; type: cell-based; conditions: dose 4-64 nM, time 3.0 day
[3] = test system: HL-60; assay: Induction of pro-differentiation of human HL-60 cells assessed as increase in CD11b expression measured after 3 to 5 days by immunostaining-based flow cytometry; type: functional, cell-based; conditions: dose 1-6.25 nM, time 3-5 day
[4] = test system: HL-60; assay: Induction of pro-differentiation of human HL-60 cells assessed as CD11b expression at 4 nM measured after 3 days by immunostaining-based flow cytometry (reference value: 8.32 to 10.55%); type: functional; conditions: time 3 day
[5] = molecular target: T1, Protein cereblon/Cyclin-dependent kinase 1 (Homo sapiens); assay: Protac activity at CRBN/CDK1 in human MV4-11 cells assessed as induction of CDK1 degradation at 2 to 32 nM measured after 3 days by Western blot analysis; type: cell-based; conditions: dose 2-32 nM, time 3.0 day
[6] = test system: HL-60; assay: Induction of pro-differentiation of human HL-60 cells assessed as increase in CD11b expression at 6.25 nM measured after 3 days by immunostaining-based flow cytometry relative to 500 nM CPS2; type: functional; conditions: time 3 day
[7] = test system: HL-60; assay: Induction of pro-differentiation of human HL-60 cells assessed as CD11b expression at 1 nM measured after 5 days by immunostaining-based flow cytometry (reference value: 10.08 to 10.33%); type: functional; conditions: time 5 day
[8] = test system: HL-60; assay: Antiproliferative activity against human HL-60 cells measured after 1 to 3 days by CCK-8 assay; type: functional, cell-based
[9] = test system: Kasumi 1; assay: Antiproliferative activity against human Kasumi 1 cells measured after 1 to 3 days by CCK-8 assay; type: functional, cell-based
[10] = molecular target: T2, Protein cereblon/Cyclin-dependent kinase 4 (Homo sapiens, UniProt P11802+Q96SW2); assay: Protac activity at CRBN/CDK4 in human MV4-11 cells assessed as induction of CDK4 degradation at 2 to 32 nM measured after 3 days by Western blot analysis; type: cell-based; conditions: dose 2-32 nM, time 3.0 day
Target sequence in this assay (P11802 2-303 limits assumed): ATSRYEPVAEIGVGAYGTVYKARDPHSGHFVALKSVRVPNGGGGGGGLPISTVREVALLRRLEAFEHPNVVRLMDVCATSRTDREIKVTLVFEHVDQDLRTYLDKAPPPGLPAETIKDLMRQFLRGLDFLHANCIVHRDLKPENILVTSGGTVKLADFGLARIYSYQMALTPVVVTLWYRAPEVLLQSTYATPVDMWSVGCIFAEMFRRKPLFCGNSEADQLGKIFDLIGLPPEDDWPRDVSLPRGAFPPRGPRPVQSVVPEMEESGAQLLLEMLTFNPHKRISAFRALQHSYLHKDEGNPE
Target sequence in this assay (Q96SW2 whole entry partner): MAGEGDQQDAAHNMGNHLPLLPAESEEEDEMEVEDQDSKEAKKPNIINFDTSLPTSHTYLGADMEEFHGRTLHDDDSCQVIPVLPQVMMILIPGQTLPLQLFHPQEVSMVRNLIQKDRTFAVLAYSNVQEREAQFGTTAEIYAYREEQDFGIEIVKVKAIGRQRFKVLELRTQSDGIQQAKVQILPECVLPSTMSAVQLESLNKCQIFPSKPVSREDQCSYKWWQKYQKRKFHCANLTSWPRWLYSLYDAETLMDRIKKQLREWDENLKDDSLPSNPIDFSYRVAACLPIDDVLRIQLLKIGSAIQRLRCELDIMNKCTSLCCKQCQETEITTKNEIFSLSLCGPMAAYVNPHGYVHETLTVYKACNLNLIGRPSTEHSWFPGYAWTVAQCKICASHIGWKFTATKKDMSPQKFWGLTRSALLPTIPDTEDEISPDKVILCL

[11] = test system: NB-4; assay: Antiproliferative activity against human NB4 cells measured after 1 to 3 days by CCK-8 assay; type: functional, cell-based
[12] = molecular target: T2, Protein cereblon/Cyclin-dependent kinase 4; assay: Protac activity at CRBN/CDK4 in human THP-1 cells assessed as induction of CDK4 degradation at 4 to 64 nM measured after 3 days by Western blot analysis; type: cell-based; conditions: dose 4-64 nM, time 3.0 day
Target sequence in this assay (P11802 2-303 limits assumed): as the sequence (P11802 2-303 limits assumed) above
Target sequence in this assay (Q96SW2 whole entry partner): as the sequence (Q96SW2 whole entry partner) above

[13] = molecular target: T3, Protein cereblon/Cyclin-dependent kinase 6 (Homo sapiens, UniProt Q00534+Q96SW2); assay: Protac activity at CRBN/CDK6 in human Kasumi 1 cells assessed as induction of CDK6 degradation at 2 to 32 nM measured after 3 days by Western blot analysis; type: cell-based; conditions: dose 2-32 nM, time 3.0 day
Target sequence in this assay (Q00534 whole entry, looked up): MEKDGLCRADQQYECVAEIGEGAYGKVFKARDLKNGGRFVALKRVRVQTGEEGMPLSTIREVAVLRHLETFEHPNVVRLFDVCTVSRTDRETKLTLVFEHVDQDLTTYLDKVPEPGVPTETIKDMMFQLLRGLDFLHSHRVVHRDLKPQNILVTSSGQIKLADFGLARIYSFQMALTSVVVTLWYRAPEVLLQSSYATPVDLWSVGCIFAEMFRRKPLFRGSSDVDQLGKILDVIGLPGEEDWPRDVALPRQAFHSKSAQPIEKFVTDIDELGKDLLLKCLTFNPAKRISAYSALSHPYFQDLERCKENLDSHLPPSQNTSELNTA
Target sequence in this assay (Q96SW2 whole entry, looked up): as the sequence (Q96SW2 whole entry partner) above

[14] = test system: HL-60; assay: Induction of pro-differentiation of human HL-60 cells assessed as CD11b expression at 4 nM measured after 5 days by immunostaining-based flow cytometry (reference value: 10.08 to 10.33%); type: functional; conditions: time 5 day
[15] = molecular target: T4, Protein cereblon/Cyclin-dependent kinase 9 (Homo sapiens, UniProt P50750+Q96SW2); assay: Protac activity at CRBN/CDK9 in human Kasumi 1 cells assessed as induction of CDK9 degradation at 2 to 32 nM measured after 3 days by Western blot analysis; type: cell-based; conditions: dose 2-32 nM, time 3.0 day
[16] = molecular target: T1, Protein cereblon/Cyclin-dependent kinase 1 (Homo sapiens); assay: Protac activity at CRBN/CDK1 in human Kasumi 1 cells assessed as induction of CDK1 degradation at 2 to 32 nM measured after 3 days by Western blot analysis; type: cell-based; conditions: dose 2-32 nM, time 3.0 day
[17] = test system: Protein cereblon/Receptor-type tyrosine-protein kinase FLT3 (Homo sapiens), P36888+Q96SW2 [UNDEFINED MUTATION]; assay: Protac activity at CRBN/FLT3-ITD mutant in human Kasumi 1 cells assessed as induction of FLT3 degradation at 2 to 32 nM measured after 3 days by Western blot analysis; type: cell-based; conditions: dose 2-32 nM, time 3.0 day
[18] = molecular target: T2, Protein cereblon/Cyclin-dependent kinase 4; assay: Protac activity at CRBN/CDK4 in human HL-60 cells assessed as induction of CDK4 degradation measured after 3 days by Western blot analysis; type: cell-based
Target sequence in this assay (P11802 whole entry): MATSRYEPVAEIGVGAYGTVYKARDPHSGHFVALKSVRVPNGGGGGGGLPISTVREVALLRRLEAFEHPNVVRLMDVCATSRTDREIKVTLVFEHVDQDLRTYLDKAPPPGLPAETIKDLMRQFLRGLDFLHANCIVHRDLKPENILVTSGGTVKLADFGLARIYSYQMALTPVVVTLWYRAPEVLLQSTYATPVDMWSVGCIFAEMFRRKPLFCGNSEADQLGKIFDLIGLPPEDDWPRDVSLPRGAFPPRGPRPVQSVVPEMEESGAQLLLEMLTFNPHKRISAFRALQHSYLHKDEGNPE
Target sequence in this assay (Q96SW2 whole entry): as the sequence (Q96SW2 whole entry partner) above

[19] = test system: HL-60; assay: Induction of pro-differentiation of human HL-60 cells assessed as CD11b expression at 1 nM measured after 3 days by immunostaining-based flow cytometry (reference value: 8.32 to 10.55%); type: functional; conditions: time 3 day
[20] = molecular target: T4, Protein cereblon/Cyclin-dependent kinase 9; assay: Protac activity at CRBN/CDK9 in human THP-1 cells assessed as induction of CDK9 degradation at 4 to 64 nM measured after 3 days by Western blot analysis; type: cell-based; conditions: dose 4-64 nM, time 3.0 day
[21] = molecular target: T5, Protein cereblon/Cyclin-dependent kinase 2 (Homo sapiens, UniProt P24941+Q96SW2); assay: Protac activity at CRBN/CDK2 in human HL-60 cells assessed as induction of CDK2 degradation measured after 3 days by Western blot analysis; type: cell-based
[22] = molecular target: T5, Protein cereblon/Cyclin-dependent kinase 2; assay: Protac activity at CRBN/CDK2 in human HL-60 cells assessed as induction of CDK2 degradation at 10 nM measured at 12 hrs by Western blot analysis; type: cell-based
[23] = molecular target: T4, Protein cereblon/Cyclin-dependent kinase 9; assay: Protac activity at CRBN/CDK9 in human MV4-11 cells assessed as induction of CDK9 degradation at 2 to 32 nM measured after 3 days by Western blot analysis; type: cell-based; conditions: dose 2-32 nM, time 3.0 day
[24] = molecular target: T5, Protein cereblon/Cyclin-dependent kinase 2; assay: Protac activity at CRBN/CDK2 in human MV4-11 cells assessed as induction of CDK2 degradation at 2 to 32 nM measured after 3 days by Western blot analysis; type: cell-based; conditions: dose 2-32 nM, time 3.0 day
[25] = molecular target: T5, Protein cereblon/Cyclin-dependent kinase 2; assay: Protac activity at CRBN/CDK2 in human HL-60 cells assessed as induction of CDK2 degradation at 10 nM measured after 24 hrs in presence of CDK2 inhibitor FN-150 by Western blot analysis; type: cell-based
[26] = molecular target: T5, Protein cereblon/Cyclin-dependent kinase 2; assay: Protac activity at CRBN/CDK2 in human THP-1 cells assessed as induction of CDK2 degradation at 4 to 64 nM measured after 3 days by Western blot analysis; type: cell-based; conditions: dose 4-64 nM, time 3.0 day
[27] = molecular target: T6, Protein cereblon/Cyclin-dependent kinase 5 (Homo sapiens) (UniProt Q00535+Q96SW2); assay: Protac activity at CRBN/CDK5 in human Kasumi 1 cells assessed as induction of CDK5 degradation at 2 to 32 nM measured after 3 days by Western blot analysis; type: cell-based; conditions: dose 2-32 nM, time 3.0 day
[28] = molecular target: T6, Protein cereblon/Cyclin-dependent kinase 5 (Homo sapiens); assay: Protac activity at CRBN/CDK5 in human HL-60 cells assessed as induction of CDK5 degradation at 4 to 64 nM measured after 3 days by Western blot analysis; type: cell-based; conditions: dose 4-64 nM, time 3.0 day
[29] = test system: HL-60; assay: Induction of pro-differentiation of human HL-60 cells assessed as increase in CD11b expression at 6.25 nM measured after 3 days by immunostaining-based flow cytometry relative to control; type: functional; conditions: time 3 day
[30] = molecular target: T5, Protein cereblon/Cyclin-dependent kinase 2; assay: Protac activity at CRBN/CDK2 in human Kasumi 1 cells assessed as induction of CDK2 degradation at 2 to 32 nM measured after 3 days by Western blot analysis; type: cell-based; conditions: dose 2-32 nM, time 3.0 day
[31] = molecular target: T3, Protein cereblon/Cyclin-dependent kinase 6; assay: Protac activity at CRBN/CDK6 in human HL-60 cells assessed as induction of CDK6 degradation measured after 3 days by Western blot analysis; type: cell-based
Target sequence in this assay (Q00534 whole entry): as the sequence (Q00534 whole entry, looked up) above
Target sequence in this assay (Q96SW2 whole entry): as the sequence (Q96SW2 whole entry partner) above

[32] = molecular target: T5, Protein cereblon/Cyclin-dependent kinase 2; assay: Protac activity at CRBN/CDK2 in human HL-60 cells assessed as induction of CDK2 degradation at 10 nM measured after 24 hrs in presence of proteasome inhibitor MG132 by Western blot analysis; type: cell-based

T1 sequence (P06493 whole entry, looked up): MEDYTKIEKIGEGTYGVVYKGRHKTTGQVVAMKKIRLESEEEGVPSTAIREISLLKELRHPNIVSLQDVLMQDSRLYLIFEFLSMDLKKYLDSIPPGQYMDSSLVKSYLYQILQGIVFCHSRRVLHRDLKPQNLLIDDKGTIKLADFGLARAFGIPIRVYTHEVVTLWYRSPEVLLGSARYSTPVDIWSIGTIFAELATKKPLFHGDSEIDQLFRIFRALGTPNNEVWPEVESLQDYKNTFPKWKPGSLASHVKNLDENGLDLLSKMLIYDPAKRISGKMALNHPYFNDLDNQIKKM
T1 sequence (Q96SW2 whole entry, looked up): as the sequence (Q96SW2 whole entry partner) above
T4 sequence (P50750 whole entry, looked up): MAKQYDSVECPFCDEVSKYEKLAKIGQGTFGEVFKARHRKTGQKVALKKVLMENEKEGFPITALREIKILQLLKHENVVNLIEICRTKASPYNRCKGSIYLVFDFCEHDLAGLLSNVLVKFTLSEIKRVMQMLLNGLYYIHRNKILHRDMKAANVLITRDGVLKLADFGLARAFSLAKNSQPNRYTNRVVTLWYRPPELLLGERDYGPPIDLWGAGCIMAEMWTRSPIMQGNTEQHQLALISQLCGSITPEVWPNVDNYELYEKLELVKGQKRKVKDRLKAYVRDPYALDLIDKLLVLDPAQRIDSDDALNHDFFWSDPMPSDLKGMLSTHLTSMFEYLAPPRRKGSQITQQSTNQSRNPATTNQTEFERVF
T4 sequence (Q96SW2 whole entry, looked up): as the sequence (Q96SW2 whole entry partner) above
T6 sequence (Q00535 whole entry, looked up): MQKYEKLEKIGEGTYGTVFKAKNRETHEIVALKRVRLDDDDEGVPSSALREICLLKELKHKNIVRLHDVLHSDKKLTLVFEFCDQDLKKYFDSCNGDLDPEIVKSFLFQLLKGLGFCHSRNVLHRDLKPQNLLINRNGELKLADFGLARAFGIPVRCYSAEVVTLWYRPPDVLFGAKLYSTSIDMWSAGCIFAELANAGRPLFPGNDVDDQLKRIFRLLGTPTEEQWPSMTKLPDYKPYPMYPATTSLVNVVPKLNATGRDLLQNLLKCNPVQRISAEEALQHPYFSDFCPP
T6 sequence (Q96SW2 whole entry, looked up): as the sequence (Q96SW2 whole entry partner) above
Chain of Protein cereblon/Receptor-type tyrosine-protein kinase FLT3 (Homo sapiens), P36888+Q96SW2 [UNDEFINED MUTATION] (P36888 whole entry, looked up, change not shown): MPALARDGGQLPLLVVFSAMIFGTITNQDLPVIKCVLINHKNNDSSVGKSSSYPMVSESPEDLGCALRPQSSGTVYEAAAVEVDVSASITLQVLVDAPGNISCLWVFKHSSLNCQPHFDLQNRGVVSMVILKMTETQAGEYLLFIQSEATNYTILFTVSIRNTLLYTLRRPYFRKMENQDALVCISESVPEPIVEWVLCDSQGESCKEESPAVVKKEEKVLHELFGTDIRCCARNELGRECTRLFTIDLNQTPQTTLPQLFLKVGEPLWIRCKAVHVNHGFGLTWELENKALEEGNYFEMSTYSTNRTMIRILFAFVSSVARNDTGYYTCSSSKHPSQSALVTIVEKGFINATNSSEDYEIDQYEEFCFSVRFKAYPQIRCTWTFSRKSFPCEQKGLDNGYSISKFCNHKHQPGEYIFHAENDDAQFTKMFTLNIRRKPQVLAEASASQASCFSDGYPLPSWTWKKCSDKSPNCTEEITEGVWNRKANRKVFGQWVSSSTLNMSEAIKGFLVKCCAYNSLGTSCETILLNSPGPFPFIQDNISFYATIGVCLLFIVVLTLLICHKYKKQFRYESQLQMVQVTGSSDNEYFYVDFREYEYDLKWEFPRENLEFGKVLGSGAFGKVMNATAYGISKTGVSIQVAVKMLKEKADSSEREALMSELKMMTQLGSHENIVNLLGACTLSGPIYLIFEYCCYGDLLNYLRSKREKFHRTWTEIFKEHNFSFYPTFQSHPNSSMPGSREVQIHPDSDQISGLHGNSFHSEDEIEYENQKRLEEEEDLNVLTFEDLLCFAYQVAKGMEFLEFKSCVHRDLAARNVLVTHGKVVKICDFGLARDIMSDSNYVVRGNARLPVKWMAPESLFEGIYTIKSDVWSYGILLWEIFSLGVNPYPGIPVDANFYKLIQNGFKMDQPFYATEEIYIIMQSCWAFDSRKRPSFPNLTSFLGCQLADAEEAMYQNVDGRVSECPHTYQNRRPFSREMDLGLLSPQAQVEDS
Chain of Protein cereblon/Receptor-type tyrosine-protein kinase FLT3 (Homo sapiens), P36888+Q96SW2 [UNDEFINED MUTATION] (Q96SW2 whole entry, looked up, change not shown): as the sequence (Q96SW2 whole entry partner) above

For `O=C1CCC(N2C(=O)c3ccc(N4CCC(CN5CCN(Cc6ccc(NC(=O)c7n[nH]cc7Nc7ncnc8[nH]ccc78)cc6)CC5)CC4)cc3C2=O)C(=O)N1` (configuration not stated), the Activity [1] was 36.57%, the Activity [2] was “inactive” and the Activity [3] was “Dose-Dependent Effect”. The Activity [4] was 43.94%, the Activity [5] was “inactive” and the “fold change (FC)” value [6] was 2.2. The Activity [7] was 29.85%, the IC50 [8] was 10.5 nM and the IC50 [9] was 3.99 nM. For the same compound, the Activity [10] was “Active”, the IC50 [11] was 4.94 nM and the Activity [12] was “Active”. For the same compound, the Activity [13] was “Active”, the Activity [14] was 58.59% and the Activity [15] was “Active”. The Activity [16] was “inactive”, the Activity [17] was “Active” and the DC50 [18] was 4.41 nM. The Activity [19] was 23.74%, the Activity [20] was “Active” and the DC50 [21] was 4.74 nM. The Activity [22] was “Active”, the Activity [23] was “Active” and the Activity [24] was “Active”. For the same compound, the Activity [25] was “inactive”, the Activity [26] was “Active” and the Activity [27] was “inactive”. For the same compound, the Activity [28] was “inactive”, the “fold change (FC)” value [29] was 5.7 and the Activity [30] was “Active”. For the same compound, the DC50 [31] was 2.71 nM and the Activity [32] was “inactive”.
